PubChem BioAssay (NCI)
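Results reflect a 48-hour exposure of cells in 96-well plates to compound at five concentrations. TGI denotes the concentration required for complete inhibition of growth.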

Experiments:
Assay in all cases: NCI tumour cell line growth inhibition, 48 h
A498 renal = tested on: A498 renal
CCRF-CEM leukemia = tested on: CCRF-CEM leukemia
COLO 205 colon = tested on: COLO 205 colon
HCT-116 colon = tested on: HCT-116 colon
HL-60(TB) leukemia = tested on: HL-60(TB) leukemia
HS 578T breast = tested on: HS 578T breast
IGROV1 ovarian = tested on: IGROV1 ovarian
K-562 leukemia = tested on: K-562 leukemia
LOX IMVI melanoma = tested on: LOX IMVI melanoma
MCF7 breast = tested on: MCF7 breast
MDA-MB-435 = tested on: MDA-MB-435
NCI-H226 lung = tested on: NCI-H226 lung
NCI-H460 lung = tested on: NCI-H460 lung
OVCAR-3 ovarian = tested on: OVCAR-3 ovarian
OVCAR-4 ovarian = tested on: OVCAR-4 ovarian
OVCAR-8 ovarian = tested on: OVCAR-8 ovarian
SF-268 CNS = tested on: SF-268 CNS
SF-295 CNS = tested on: SF-295 CNS
SK-MEL-28 melanoma = tested on: SK-MEL-28 melanoma
MDA-N = tested on: MDA-N

Structure (SMILES) | TGI (A498 renal) [µM] | TGI (CCRF-CEM leukemia) [µM] | TGI (COLO 205 colon) [µM] | TGI (HCT-116 colon) [µM] | TGI (HL-60(TB) leukemia) [µM] | TGI (HS 578T breast) [µM] | TGI (IGROV1 ovarian) [µM] | TGI (K-562 leukemia) [µM] | TGI (LOX IMVI melanoma) [µM] | TGI (MCF7 breast) [µM] | TGI (MDA-MB-435) [µM] | TGI (NCI-H226 lung) [µM] | TGI (NCI-H460 lung) [µM] | TGI (OVCAR-3 ovarian) [µM] | TGI (OVCAR-4 ovarian) [µM] | TGI (OVCAR-8 ovarian) [µM] | TGI (SF-268 CNS) [µM] | TGI (SF-295 CNS) [µM] | TGI (SK-MEL-28 melanoma) [µM] | TGI (MDA-N) [µM]
CN(C)C(=S)/N=c1\ssc(=S)n1Cc1cccnc1 | > 100 | > 86.1 | 32.1 | > 100 | > 57.8 | > 100 | > 100 | > 100 | > 100 | > 100 | 1.57 | > 100 | > 95.7 | 9.47 | > 100 | > 100 | > 100 | 16.8 | > 100 | –
CCC12CCCN(Cc3ccccc3)C1c1c(n(C)c3ccccc13)C(C(=O)OC)C2 (centres undefined) | – | > 239 | > 239 | > 239 | > 239 | – | > 239 | > 239 | > 239 | – | – | > 239 | > 239 | 170 | – | > 239 | > 239 | 231 | > 239 | –
COc1cc(CO)c(CC(=O)NCCCc2ccccc2)cc1OC | > 100 | > 100 | > 100 | > 100 | > 100 | > 100 | > 100 | > 100 | > 100 | – | > 100 | > 100 | > 100 | > 100 | > 100 | > 100 | – | – | > 100 | > 100
N#CC(=C1CCN(CCCC(=O)c2ccc(F)cc2)CC1)c1ccccc1 | > 100 | > 100 | > 100 | > 100 | > 100 | > 100 | > 100 | > 100 | > 100 | > 100 | > 100 | > 100 | > 100 | – | > 100 | > 100 | > 100 | > 100 | > 100 | –
CCOC(=O)/C=C/n1c2ccccc2c(=O)c2ccccc21 | > 100 | > 100 | > 100 | > 100 | > 100 | – | > 100 | > 100 | > 100 | – | – | > 100 | > 100 | > 100 | > 100 | > 100 | > 100 | > 100 | > 100 | –
N#Cc1c(-c2ccc([N+](=O)[O-])cc2)c(C#N)c(=O)n(NS(=O)(=O)c2ccccc2)c1-c1ccccc1 | > 100 | > 100 | > 100 | > 100 | > 100 | > 100 | > 100 | > 100 | > 100 | > 100 | > 100 | > 100 | > 100 | – | > 100 | > 100 | > 100 | > 100 | > 100 | –
CN1c2ccccc2N(C(=O)c2ccc(Cl)cc2)C(CC(=O)O)c2cccn21 (centres undefined) | > 100 | > 100 | > 100 | – | > 100 | – | > 100 | > 100 | > 100 | – | – | > 100 | > 100 | > 100 | > 100 | > 100 | > 100 | > 100 | > 100 | –
CC(C)C1=CC23CCC4C(C)(C(=O)O)CCCC4(C)C2CC1C1C(=O)N(c2ccccc2N2C(=O)C4C5CC6C7(C)CCCC(C)(C(=O)O)C7CCC6(C=C5C(C)C)C4C2=O)C(=O)C13 (centres undefined) | 13.6 | 22.1 | 17.8 | 18.2 | – | 34.1 | – | 73 | – | – | 13.1 | 30.2 | – | 23.4 | 38.8 | – | 16.5 | – | – | 19.4
C=CCC(N(C)C(=O)[C@H](Cc1ccccc1)NC(=O)OCc1ccccc1)P(=O)(Oc1ccccc1)Oc1ccccc1 (some centres undefined) | – | > 100 | > 100 | > 100 | > 100 | – | > 100 | > 100 | > 100 | – | – | > 100 | > 100 | > 100 | – | > 100 | > 100 | > 100 | > 100 | –
CN1CNc2nc(N)n(C)c(=O)c2C1 | – | > 10 | – | – | > 10 | – | > 10 | > 10 | – | – | > 10 | > 10 | > 10 | > 10 | > 10 | > 10 | > 10 | > 10 | – | > 10
CN1CCN(c2ncc3c(n2)sc2c(=O)n(-c4ccccc4)cnc23)CC1 | > 100 | > 100 | > 100 | > 100 | – | > 100 | > 100 | > 100 | > 100 | – | > 100 | > 100 | > 100 | > 100 | > 100 | > 100 | > 100 | > 100 | > 100 | > 100
COC(=O)CC1NC(=O)[C@@H]1C(C)O (some centres undefined) | > 100 | > 100 | > 100 | > 100 | > 100 | – | > 100 | > 100 | > 100 | – | – | > 100 | > 100 | > 100 | > 100 | > 100 | > 100 | > 100 | > 100 | –
CC1CN(c2ccc(Cl)cc2)CC(C)OC(=O)O1 (centres undefined) | – | > 100 | > 100 | – | > 100 | – | > 100 | > 100 | > 100 | – | – | > 100 | > 100 | > 100 | > 100 | > 100 | > 100 | > 100 | > 100 | –
N#C/C(c1nc2ccccc2[nH]1)=c1\s/c(=C/c2ccc(Cl)cc2)c(=O)n1-c1ccccc1 | > 100 | > 100 | > 100 | > 100 | > 100 | – | > 100 | > 100 | > 100 | – | – | > 100 | > 100 | > 100 | > 100 | > 100 | > 100 | – | > 100 | –
